Test results reported in PMC10873978, “Novel tetrahydroisoquinolines as DHFR and CDK2 inhibitors: synthesis, characterization, anticancer activity and antioxidant properties” (BMC Chemistry, 2024).

Legend:
A549 cell line = assay: In vitro cytotoxic activity, MTT method, A549; conditions: for IC50: Homo sapiens, read-out: IC50 ± SD
Protocol: (§1) Cell lines: The in vitro human breast cancerous cell line (MCF7), lung cancerous cell lines (A549) and normal cell lines were purchased from Serum and Vaccine formulation in Cairo-Egypt.
(§2) In vitro cytotoxic activity of all synthesized compounds against two human breast cell line (MCF7) and lung cell lines (A549) was evaluated according to the MTT method. Firstly, Growth the cell line medium in 96 well tissue culture plate was injected with 10^5 cells/mL (100 uL/plate well) of the cell line and incubated at 37 °C for 24 h to develop a monolayer sheet then the formed growth medium was poured from 96 well microtiter plates after the confluent sheet of cells. […] Secondly, add 0.1 mL of each concentration tetrahydroisoquinoline sample to each plate. The plates were incubated at 37 °C. Thirdly MTT solution (5 mg/mL in PBS) is prepared. Add 20 µL of MTT solution to each well plates. And shaking in 150 rpm for 5 min, to mix the MTT into the media. Then incubate at (37 °C, 5% CO2) for 1–5 h. Finally read the optical density at 560 nm and subtract background at 620 nm.
(§3) In this work, doxorubicin was used as a positive control drug for comparison with the synthesized compounds under the same experimental conditions.

MCF7 cell line = assay: In vitro cytotoxic activity, MTT method, MCF7; format: cell-based, human; conditions: for IC50: Homo sapiens, MCF7, MCF7 cell line, MTT
Protocol: as §1, §2, §3

[1] = DPPH scavenging antioxidant activity
Protocol: The antioxidant activity of ten compounds was determined using DPPH [32–34]. A solution 1: prepared by dissolving DPPH (0.002 g) in ethanol (50 mL etnanol). Solution 2: prepared by dissolving different weights 0.05, 0.01 g of each sample in 1 mL of DMSO then take 10 µL of each sample solution with 1 mL ethanol. Then mix 1 mL of solution 1 with 1 mL of solution 2 then vortex the resulting mixture in the dark for about 30 min. The absorbance of the mixture was measured by spectrophotometer at λmax = 517 nm against blank 1 mL absolute ethanol and compared to the ascorbic acid (Vitamin C).
Ten newly synthesized compounds were studied as in vitro antioxidants by measuring of their DPPH scavenging activity which is represented as a percentage % [32]^. Results are represented by mean ± SD of three replicates. […] The higher dose concentration of 0.05 μg/mL represents higher antioxidant activity. […] The high antioxidant activity is referred to the presence of C=O, NH2, and OH groups like ascorbic acid which can be easily oxidized and reduced and can be used as antioxidant drugs. (Fig. 8 and Table 9).

In the case of `CC(=O)C1C(c2ccc(N(C)C)cc2)c2c(C)nc(SCC(N)=O)c(C#N)c2CC1(C)O` (stereo not drawn) [Compound 5, 2-[(7-Acetyl-4-cyano-1,6-dimethyl-6-hydroxy-8-(4-N,N-dimethylamino-phenyl)-5,6,7,8-tetrahydroisoquinolin-3-yl)thio]acetamide], the Toxicity % (A549 cell line; A549, Conc. 0.0487 µMol) is reported as 0%, the Viability % (A549 cell line; A549, Conc. 0.0487 µMol) is reported as 100% and the Toxicity % (A549 cell line; A549, Conc. 0.0975 µMol) is reported as 0.13%. It also gave a Viability % (A549 cell line; A549, Conc. 0.0975 µMol) of 99.87%, a Toxicity % (A549 cell line; A549, Conc. 0.195 µMol) of 0.3156% and a Viability % (A549 cell line; A549, Conc. 0.195 µMol) of 99.68%. It also gave a Toxicity % (A549 cell line; A549, Conc. 0.391 µMol) of 9.625%, a Viability % (A549 cell line; A549, Conc. 0.391 µMol) of 90.37% and a Toxicity % (A549 cell line; A549, Conc. 0.781 µMol) of 36.96%. It also gave a Viability % (A549 cell line; A549, Conc. 0.781 µMol) of 63.04%, a Toxicity % (A549 cell line; A549, Conc. 1.562 µMol) of 54.08% and a Viability % (A549 cell line; A549, Conc. 1.562 µMol) of 45.92%. The Toxicity % (A549 cell line; A549, Conc. 3.125 µMol) was 69.66%, the Viability % (A549 cell line; A549, Conc. 3.125 µMol) was 30.34% and the Toxicity % (A549 cell line; A549, Conc. 6.25 µMol) was 83.27%. It also gave a Viability % (A549 cell line; A549, Conc. 6.25 µMol) of 16.73%, a Toxicity % (A549 cell line; A549, Conc. 12.5 µMol) of 91.6% and a Viability % (A549 cell line; A549, Conc. 12.5 µMol) of 8.402%. It also gave a Toxicity % (A549 cell line; A549, Conc. 25 µMol) of 96.37%, a Viability % (A549 cell line; A549, Conc. 25 µMol) of 3.629% and an IC50 (A549 cell line) of 1247 ± 2 nM. It also gave an IC50 (MCF7 cell line) of 924 ± 7 nM, a Toxicity % (MCF7 cell line; MCF7, 0.0487 µMol) of -4.567% and a Viability % (MCF7 cell line; MCF7, 0.0487 µMol) of 104.5%. The Toxicity % (MCF7 cell line; MCF7, 0.0975 µMol) was -3.545%, the Viability % (MCF7 cell line; MCF7, 0.0975 µMol) was 103.6% and the Toxicity % (MCF7 cell line; MCF7, 0.195 µMol) was -2.859%. The Viability % (MCF7 cell line; MCF7, 0.195 µMol) was 102.9%, the Toxicity % (MCF7 cell line; MCF7, 0.391 µMol) was 4.208% and the Viability % (MCF7 cell line; MCF7, 0.391 µMol) was 95.79%. It also gave a Toxicity % (MCF7 cell line; MCF7, 0.781 µMol) of 35.46%, a Viability % (MCF7 cell line; MCF7, 0.781 µMol) of 64.54% and a Toxicity % (MCF7 cell line; MCF7, 1.562 µMol) of 77.53%. The Viability % (MCF7 cell line; MCF7, 1.562 µMol) was 22.47%, the Toxicity % (MCF7 cell line; MCF7, 3.125 µMol) was 88.89% and the Viability % (MCF7 cell line; MCF7, 3.125 µMol) was 11.11%. The Toxicity % (MCF7 cell line; MCF7, 6.25 µMol) was 93.91%, the Viability % (MCF7 cell line; MCF7, 6.25 µMol) was 6.087% and the Toxicity % (MCF7 cell line; MCF7, 12.5 µMol) was 96.85%. It also gave a Viability % (MCF7 cell line; MCF7, 12.5 µMol) of 3.145%, a Toxicity % (MCF7 cell line; MCF7, 25 µMol) of 97.22% and a Viability % (MCF7 cell line; MCF7, 25 µMol) of 2.778%.
`CC(=O)C1C(c2ccc(N(C)C)cc2)c2c(C)nc3sc(C(=O)Nc4ccc(Cl)cc4)c(N)c3c2CC1(C)O` (stereo not drawn) [Compound 8c, 7-Acetyl-1-amino-N-(4-chlorophenyl)-5,8-dimethyl-8-hydroxy-6-(4-N,N-dimethyl-aminophenyl)-6,7,8,9-tetrahydrothieno[2,3-c]isoquinoline-2-carboxamide] gave a Toxicity % (A549 cell line; A549, Conc. 0.04875 µMol) of 10.24%, a Toxicity % (A549 cell line; A549, Conc. 0.0975 µMol) of 14.26% and a Toxicity % (A549 cell line; A549, Conc. 0.195 µMol) of 18.74%. The Viability % (A549 cell line; A549, Conc. 0.195 µMol) was 81.26%, the Toxicity % (A549 cell line; A549, Conc. 0.391 µMol) was 47.14% and the Viability % (A549 cell line; A549, Conc. 0.391 µMol) was 52.86%. The Toxicity % (A549 cell line; A549, Conc. 0.781 µMol) was 65.05%, the Viability % (A549 cell line; A549, Conc. 0.781 µMol) was 34.95% and the Toxicity % (A549 cell line; A549, Conc. 1.562 µMol) was 75.74%. The Viability % (A549 cell line; A549, Conc. 1.562 µMol) was 24.26%, the Toxicity % (A549 cell line; A549, Conc. 3.125 µMol) was 84.18% and the Viability % (A549 cell line; A549, Conc. 3.125 µMol) was 15.82%. For the same molecule, the Toxicity % (A549 cell line; A549, Conc. 6.25 µMol) was 89.35%, the Viability % (A549 cell line; A549, Conc. 6.25 µMol) was 10.65% and the Toxicity % (A549 cell line; A549, Conc. 12.5 µMol) was 96.69%. For the same molecule, the Viability % (A549 cell line; A549, Conc. 12.5 µMol) was 3.314%, the Toxicity % (A549 cell line; A549, Conc. 25 µMol) was 97% and the Viability % (A549 cell line; A549, Conc. 25 µMol) was 2.998%. It also gave an IC50 (A549 cell line) of 332 ± 2 nM, an IC50 (MCF7 cell line) of 215 ± 5 nM and a Toxicity % (MCF7 cell line; MCF7, Conc. 0.0487 µMol) of 26.68%. The Viability % (MCF7 cell line; MCF7, Conc. 0.0487 µMol) was 73.3223%, the Toxicity % (MCF7 cell line; MCF7, Conc. 0.0975 µMol) was 30.4566% and the Viability % (MCF7 cell line; MCF7, Conc. 0.0975 µMol) was 69.5434%. The Toxicity % (MCF7 cell line; MCF7, Conc. 0.195 µMol) was 40.36%, the Viability % (MCF7 cell line; MCF7, Conc. 0.195 µMol) was 59.64% and the Toxicity % (MCF7 cell line; MCF7, Conc. 0.391 µMol) was 60.25%. For the same molecule, the Viability % (MCF7 cell line; MCF7, Conc. 0.391 µMol) was 39.75%, the Toxicity % (MCF7 cell line; MCF7, Conc. 0.781 µMol) was 70.02% and the Viability % (MCF7 cell line; MCF7, Conc. 0.781 µMol) was 29.98%. It also gave a Toxicity % (MCF7 cell line; MCF7, Conc. 1.562 µMol) of 85.7%, a Viability % (MCF7 cell line; MCF7, Conc. 1.562 µMol) of 14.3% and a Toxicity % (MCF7 cell line; MCF7, Conc. 3.125 µMol) of 96.45%. The Viability % (MCF7 cell line; MCF7, Conc. 3.125 µMol) was 3.554%, the Toxicity % (MCF7 cell line; MCF7, Conc. 6.25 µMol) was 96.57% and the Viability % (MCF7 cell line; MCF7, Conc. 6.25 µMol) was 3.431%. The Toxicity % (MCF7 cell line; MCF7, Conc. 12.5 µMol) was 97.1%, the Viability % (MCF7 cell line; MCF7, Conc. 12.5 µMol) was 2.9% and the Toxicity % (MCF7 cell line; MCF7, Conc. 25 µMol) was 96.94%. The Viability % (MCF7 cell line; MCF7, Conc. 25 µMol) was 3.064%.
In the case of `O=C1O[C@H]([C@@H](O)CO)C(O)=C1O` [Vitamin C, ascorbic acid, reference compound], the “DPPH scavenging, inhibition (%)” value ([1]; 0.01 µg/mL) is reported as 50.54 ± 2.76% and the “DPPH scavenging, inhibition (%)” value ([1]; 0.05 µg/mL) is reported as 69.90 ± 3.98%.
